Measured values as given in patent US20200002303A1, “C-GLYCOSIDE COMPOUNDS USEFUL FOR TREATING DISEASE” (Fimbrion Therapeutics, Inc., priority 2016, published 2020).

Biological target: T1, FimH (Escherichia coli, UniProt Q1R2J4)
T1 construct: performed with UTI89 bacteria and guinea pig red blood cells; endogenous in cells; host or cells: UTI89 bacteria (whole cells, type 1 piliated)
Assay type: cell-based
Details: concentration reducing bacterial agglutination of guinea pig red blood cells by greater than 90%; UTI89 bacteria
Description: The hemagglutination inhibition (HAI) assay was performed with UTI89 bacteria and guinea pig red blood cells, as previously described (S. J. Hultgren, W. R. Schwan, A. J. Schaeffer, J. L. Duncan Infect. Immun. 1986, 54, 613-620).

Compound	HAI titer EC>90 [µM]
CNC(=O)c1cccc(-c2ccc(C(OC)[C@H]3O[C@H](CO)[C@@H](O)[C@H](O)[C@@H]3O)cc2C)c1 (single isomer, unassigned) [Example 8]	0.5
Cc1cc(-c2ccc3cc[nH]c(=O)c3c2)cc(C)c1[C@@H](O)[C@H]1OC(CO)[C@@H](O)[C@H](O)C1O (single isomer, unassigned) [Example 29]	0.108
Cc1cc(-c2ccc3cc[nH]c(=O)c3c2)cc(C)c1[C@H](O)[C@H]1OC(CO)[C@@H](O)[C@H](O)C1O (single isomer, unassigned) [Example 30]	0.406
CNC(=O)c1cccc(-c2ccc([C@H](O)[C@H]3OC(CO)[C@@H](O)[C@H](O)C3O)c(C(F)(F)F)c2)c1 (single isomer, unassigned) [Example 40]	5
Cc1cc(-c2cccc3c2CCN(C)C3)ccc1[C@@H](O)[C@H]1O[C@H](CO)[C@@H](O)[C@H](O)[C@@H]1O [Example 5, (2R,3S,4S,5S,6R)-2-((R)-hydroxy(2-methyl-4-(2-methyl-1,2,3,4-tetrahydroisoquinolin-5-yl)phenyl)methyl)-6-(hydroxymethyl)tetrahydro-2H-pyran-3,4,5-triol]	1
CNC(=O)c1cccc(-c2ccc([C@@H](N)[C@H]3O[C@H](CO)[C@@H](O)[C@H](O)[C@@H]3O)c(C)c2)c1 [Example 6, 4′-((R)-amino((2R,3S,4R,5S,6R)-3,4,5-trihydroxy-6-(hydroxymethyl)tetrahydro-2H-pyran-2-yl)methyl)-N,3′-dimethylbiphenyl-3-carboxamide]	0.5
CNC(=O)c1cccc(-c2ccc([C@@H](OC)[C@H]3O[C@H](CO)[C@@H](O)[C@H](O)[C@@H]3O)c(C)c2)c1 [Example 7, 4′-((R)-methoxy((2S,3S,4S,5S,6R)-3,4,5-trihydroxy-6-(hydroxymethyl)tetrahydro-2H-pyran-2-yl)methyl)-N,3′-dimethylbiphenyl-3-carboxamide]	2
CNC(=O)c1cccc(-c2ccc(C(F)(F)[C@H]3O[C@H](CO)[C@@H](O)[C@H](O)[C@@H]3O)c(C)c2)c1 [Example 9, 4′-(difluoro((2S,3S,4S,5S,6R)-3,4,5-trihydroxy-6-(hydroxymethyl)tetrahydro-2H-pyran-2-yl)methyl)-N,3′-dimethylbiphenyl-3-carboxamide]	1.5
Cc1cc(-c2ccc3cnccc3c2)ccc1[C@@H](O)[C@H]1O[C@H](CO)[C@@H](O)[C@H](O)[C@@H]1O [Example 10, (2R,3S,4S,5S,6R)-2-((R)-Hydroxy (4-(isoquinolin-6-yl)-2-methylphenyl)methyl)-6-(hydroxymethyl)-tetrahydro-2H-pyran-3,4,5-triol]	0.052
Cc1cc(-c2ccc3ccn(C)c(=O)c3c2)ccc1[C@@H](O)[C@H]1O[C@H](CO)[C@@H](O)[C@H](O)[C@@H]1O [Example 11, 7-(4-((R)-Hydroxy ((2R,3S,4S,5S,6R)-3,4,5-trihydroxy-6-(hydroxymethyl)-tetrahydro-2H-pyran-2-yl)methyl)-3-methylphenyl)-2-methylisoquinolin-1 (2H)-one]	0.011
Cc1cc(-c2ccc3c(c2)C(=O)N(C)CC3)ccc1[C@@H](O)[C@H]1O[C@H](CO)[C@@H](O)[C@H](O)[C@@H]1O [Example 12, 7-(4-((R)-Hydroxy ((2R,3S,4S,5S,6R)-3,4,5-trihydroxy-6-(hydroxymethyl)-tetrahydro-2H-pyran-2-yl)methyl)-3-methylphenyl)-2-methyl-3,4-dihydroisoquinolin-1 (2H)-one]	0.008
Cc1cc(-c2cccc3c2CNC3=O)ccc1[C@@H](O)[C@H]1O[C@H](CO)[C@@H](O)[C@H](O)[C@@H]1O [Example 13, 4-(4-((R)-Hydroxy ((2R,3S,4S,5S,6R)-3,4,5-trihydroxy-6-(hydroxymethyl)-tetrahydro-2H-pyran-2-yl)methyl)-3-methylphenyl)isoindolin-1-one]	0.083
Cc1cc(-c2ccc3ncccc3c2)ccc1[C@@H](O)[C@H]1O[C@H](CO)[C@@H](O)[C@H](O)[C@@H]1O [Example 14, (2R,3S,4S,5S,6R)-2-((R)-Hydroxy (2-methyl-4-(quinolin-6-yl)phenyl)methyl)-6-(hydroxymethyl)-tetrahydro-2H-pyran-3,4,5-triol]	0.032
Cc1cc(-c2ccc3cccnc3c2)ccc1[C@@H](O)[C@H]1O[C@H](CO)[C@@H](O)[C@H](O)[C@@H]1O [Example 15, (2R,3S,4S,5S,6R)-2-((R)-Hydroxy (2-methyl-4-(quinolin-7-yl)phenyl)methyl)-6-(hydroxymethyl)-tetrahydro-2H-pyran-3,4,5-triol]	0.015
Cc1cc(-c2ccc3ncn(C)c3c2)ccc1[C@@H](O)[C@H]1O[C@H](CO)[C@@H](O)[C@H](O)[C@@H]1O [Example 16, (2R,3S,4S,5S,6R)-2-((R)-Hydroxy (2-methyl-4-(3-methyl-3H-benzo[d]imidazol-5-yl)phenyl)methyl)-6-(hydroxymethyl)-tetrahydro-2H-pyran-3,4,5-triol]	0.042
Cc1cc(-c2ccc3nc[nH]c3c2)ccc1[C@@H](O)[C@H]1O[C@H](CO)[C@@H](O)[C@H](O)[C@@H]1O [Example 17, (2R,3S,4S,5S,6R)-2-((R)-(4-(3H-Benzo[d]imidazol-5-yl)-2-methylphenyl) (hydroxy)methyl)-6-(hydroxymethyl)-tetrahydro-2H-pyran-3,4,5-triol]	0.037
Cc1cc(-c2cccc3c(N)n[nH]c23)ccc1[C@@H](O)[C@H]1O[C@H](CO)[C@@H](O)[C@H](O)[C@@H]1O [Example 18, (2R,3S,4S,5S,6R)-2-((R)-(4-(3-Amino-1H-indazol-7-yl)-2-methylphenyl) (hydroxy)methyl)-6-(hydroxymethyl)-tetrahydro-2H-pyran-3,4,5-triol]	0.006
Cc1cc(-c2ccc3c(c2)C(=O)NC3)ccc1[C@@H](O)[C@H]1O[C@H](CO)[C@@H](O)[C@H](O)[C@@H]1O [Example 19, 6-(4-((R)-Hydroxy ((2R,3S,4S,5S,6R)-3,4,5-trihydroxy-6-(hydroxymethyl)-tetrahydro-2H-pyran-2-yl)methyl)-3-methylphenyl)isoindolin-1-one]	0.016
Cc1cc(-c2ccc3onc(C)c3c2)ccc1[C@@H](O)[C@H]1O[C@H](CO)[C@@H](O)[C@H](O)[C@@H]1O [Example 20, (2R,3S,4S,5S,6R)-2-((R)-Hydroxy (2-methyl-4-(3-methylbenzo[d]isoxazol-5-yl)phenyl)methyl)-6-(hydroxymethyl)-tetrahydro-2H-pyran-3,4,5-triol]	0.068
Cc1cc(-c2ccc3ccncc3c2)ccc1[C@@H](O)[C@H]1O[C@H](CO)[C@@H](O)[C@H](O)[C@@H]1O [Example 21, (2R,3S,4S,5S,6R)-2-((R)-Hydroxy (4-(isoquinolin-7-yl)-2-methylphenyl)methyl)-6-(hydroxymethyl)-tetrahydro-2H-pyran-3,4,5-triol]	0.016
Cc1cc(-c2ccnc(Cl)c2)ccc1[C@@H](O)[C@H]1O[C@H](CO)[C@@H](O)[C@H](O)[C@@H]1O [Example 22, (2R,3S,4S,5S,6R)-2-((R)-(4-(2-Chloropyridin-4-yl)-2-methylphenyl) (hydroxy)methyl)-6-(hydroxymethyl)-tetrahydro-2H-pyran-3,4,5-triol]	0.027
Cc1cc(-c2ccnc(-c3ccnc(Cl)c3)c2)ccc1[C@@H](O)[C@H]1O[C@H](CO)[C@@H](O)[C@H](O)[C@@H]1O [Example 23, (2R,3S,4S,5S,6R)-2-((R)-(4-(2′-Chloro-[2,4′-bipyridin]-4-yl)-2-methylphenyl) (hydroxy)methyl)-6-(hydroxymethyl)tetrahydro-2H-pyran-3,4,5-triol]	0.008
CNc1cc(-c2ccc([C@@H](O)[C@H]3O[C@H](CO)[C@@H](O)[C@H](O)[C@@H]3O)c(C)c2)ccn1 [Example 24, (2R,3S,4S,5S,6R)-2-((R)-Hydroxy (2-methyl-4-(2-(methylamino)pyridin-4-yl)phenyl)methyl)-6-(hydroxymethyl)-tetrahydro-2H-pyran-3,4,5-triol]	0.032
Cc1cc(-c2ccnc(N3CCOCC3)c2)ccc1[C@@H](O)[C@H]1O[C@H](CO)[C@@H](O)[C@H](O)[C@@H]1O [Example 25, (2R,3S,4S,5S,6R)-2-((R)-Hydroxy (2-methyl-4-(2-morpholinopyridin-4-yl)phenyl)methyl)-6-(hydroxymethyl)-tetrahydro-2H-pyran-3,4,5-triol]	0.006
Cc1cc(-c2ccnc(N)c2)ccc1[C@@H](O)[C@H]1O[C@H](CO)[C@@H](O)[C@H](O)[C@@H]1O [Example 26, (2R,3S,4S,5S,6R)-2-((R)-(4-(2-Aminopyridin-4-yl)-2-methylphenyl) (hydroxy)methyl)-6-(hydroxymethyl)-tetrahydro-2H-pyran-3,4,5-triol]	0.039
Cc1cc(-c2ccnc(N(C)C)c2)ccc1[C@@H](O)[C@H]1O[C@H](CO)[C@@H](O)[C@H](O)[C@@H]1O [Example 27, (2R,3S,4S,5S,6R)-2-((R)-(4-(2-(Dimethylamino)pyridin-4-yl)-2-methylphenyl) (hydroxy)methyl)-6-(hydroxymethyl)-tetrahydro-2H-pyran-3,4,5-triol]	0.016
Cc1cc(-c2ccc3onc(N)c3c2)ccc1[C@@H](O)[C@H]1O[C@H](CO)[C@@H](O)[C@H](O)[C@@H]1O [Example 28, (2R,3S,4S,5S,6R)-2-((R)-(4-(3-Aminobenzo[d]isoxazol-5-yl)-2-methylphenyl) (hydroxy)methyl)-6-(hydroxymethyl)-tetrahydro-2H-pyran-3,4,5-triol]	0.027
